Reference: paper PMC12658114, “Pharmacologic inhibition of PCBP2 biomolecular condensates relieves Alzheimer’s disease” (Nature Communications, 2025)

Tests used:
Assay in all cases: biotin probe pull-down on streptavidin beads, Western blot
Assay type in all cases: biochemical
Conditions in all cases: lysate of transfected SH-SY5Y cells; labelled compound
[1] = target: T1, (Homo sapiens, UniProt Q8N201, R1404A)
T1 construct: gene INTS1; full-length cDNA (synthesized) in pcDNA3.1(+), C-terminal 3xFLAG, transiently expressed in SH-SY5Y cells, cell lysate
T1 sequence (Q8N201 whole entry R1404A): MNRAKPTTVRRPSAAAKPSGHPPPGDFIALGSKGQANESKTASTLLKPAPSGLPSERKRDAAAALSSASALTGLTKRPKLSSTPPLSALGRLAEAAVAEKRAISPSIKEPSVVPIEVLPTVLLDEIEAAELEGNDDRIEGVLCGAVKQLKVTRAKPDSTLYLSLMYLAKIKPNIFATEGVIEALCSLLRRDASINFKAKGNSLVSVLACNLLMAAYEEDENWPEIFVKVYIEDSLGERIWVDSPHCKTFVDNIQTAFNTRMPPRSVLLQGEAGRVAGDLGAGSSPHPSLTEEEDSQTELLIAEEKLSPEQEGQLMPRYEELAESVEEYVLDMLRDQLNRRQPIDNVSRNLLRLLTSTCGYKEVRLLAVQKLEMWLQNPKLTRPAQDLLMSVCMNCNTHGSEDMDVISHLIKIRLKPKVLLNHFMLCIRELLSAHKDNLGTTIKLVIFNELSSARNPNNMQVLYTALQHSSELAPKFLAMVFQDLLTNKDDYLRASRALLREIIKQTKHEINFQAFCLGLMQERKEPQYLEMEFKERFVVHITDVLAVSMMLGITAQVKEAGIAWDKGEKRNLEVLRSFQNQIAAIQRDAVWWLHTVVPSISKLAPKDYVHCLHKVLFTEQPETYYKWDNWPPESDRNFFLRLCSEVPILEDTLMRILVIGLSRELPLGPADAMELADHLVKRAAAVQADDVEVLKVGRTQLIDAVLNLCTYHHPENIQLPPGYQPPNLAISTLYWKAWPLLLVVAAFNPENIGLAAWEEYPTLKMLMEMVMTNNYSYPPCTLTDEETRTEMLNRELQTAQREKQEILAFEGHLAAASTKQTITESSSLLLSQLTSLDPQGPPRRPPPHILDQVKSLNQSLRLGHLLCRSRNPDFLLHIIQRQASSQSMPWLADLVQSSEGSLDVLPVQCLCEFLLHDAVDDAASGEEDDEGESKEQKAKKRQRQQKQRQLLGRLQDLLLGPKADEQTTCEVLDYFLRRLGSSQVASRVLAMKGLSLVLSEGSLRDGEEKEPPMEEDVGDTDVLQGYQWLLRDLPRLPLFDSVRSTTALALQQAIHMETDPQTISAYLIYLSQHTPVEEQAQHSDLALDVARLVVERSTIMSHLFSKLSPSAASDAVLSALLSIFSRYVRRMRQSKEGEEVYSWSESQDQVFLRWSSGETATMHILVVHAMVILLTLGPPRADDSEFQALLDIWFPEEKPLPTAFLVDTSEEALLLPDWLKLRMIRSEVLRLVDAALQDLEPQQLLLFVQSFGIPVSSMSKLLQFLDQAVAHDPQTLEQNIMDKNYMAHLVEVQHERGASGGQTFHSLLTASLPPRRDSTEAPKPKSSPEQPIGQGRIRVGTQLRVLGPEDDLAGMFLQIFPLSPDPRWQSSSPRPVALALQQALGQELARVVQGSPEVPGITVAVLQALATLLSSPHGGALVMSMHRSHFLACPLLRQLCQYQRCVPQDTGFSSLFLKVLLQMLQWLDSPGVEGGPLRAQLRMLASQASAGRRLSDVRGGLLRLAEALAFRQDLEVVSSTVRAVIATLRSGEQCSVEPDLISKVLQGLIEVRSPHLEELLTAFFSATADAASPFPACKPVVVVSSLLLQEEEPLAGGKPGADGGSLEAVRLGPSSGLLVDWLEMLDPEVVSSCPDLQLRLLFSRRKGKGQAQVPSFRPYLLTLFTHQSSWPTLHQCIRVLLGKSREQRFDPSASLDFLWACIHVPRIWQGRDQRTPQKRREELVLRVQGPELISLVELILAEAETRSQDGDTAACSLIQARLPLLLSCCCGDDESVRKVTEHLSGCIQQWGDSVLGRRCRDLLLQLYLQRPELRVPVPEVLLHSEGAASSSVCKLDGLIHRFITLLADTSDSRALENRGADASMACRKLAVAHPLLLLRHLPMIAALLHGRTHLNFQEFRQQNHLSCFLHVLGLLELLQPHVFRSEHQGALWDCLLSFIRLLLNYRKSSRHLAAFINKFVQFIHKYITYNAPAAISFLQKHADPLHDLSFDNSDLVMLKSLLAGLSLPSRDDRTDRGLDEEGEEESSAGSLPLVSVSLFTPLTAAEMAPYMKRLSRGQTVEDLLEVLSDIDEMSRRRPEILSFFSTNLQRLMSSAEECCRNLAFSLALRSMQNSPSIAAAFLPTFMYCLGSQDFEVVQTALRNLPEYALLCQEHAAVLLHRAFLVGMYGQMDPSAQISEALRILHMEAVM

[2] = target: T2, flag-tagged wild type INTS1 (INTS1-WT-flag) (Homo sapiens, UniProt Q8N201)
T2 construct: full-length cDNA (synthesized) in pcDNA3.1(+), C-terminal 3xFLAG, transiently expressed in SH-SY5Y cells, cell lysate
T2 sequence (Q8N201 whole entry): as the sequence (Q8N201 whole entry R1404A) above, with A1404R counted along it

[3] = target: T3, (Homo sapiens, UniProt Q8N201, R1404L)
T3 construct: gene INTS1; full-length cDNA (synthesized) in pcDNA3.1(+), C-terminal 3xFLAG, transiently expressed in SH-SY5Y cells, cell lysate
T3 sequence (Q8N201 whole entry R1404L): as the sequence (Q8N201 whole entry R1404A) above, with A1404L counted along it

flag-tagged INTS1 = target: T4, flag-tagged INTS1 (Homo sapiens, UniProt Q8N201, R1404K)
T4 construct: full-length cDNA (synthesized) in pcDNA3.1(+), C-terminal 3xFLAG, transiently expressed in SH-SY5Y cells, cell lysate
T4 sequence (Q8N201 whole entry R1404K): as the sequence (Q8N201 whole entry R1404A) above, with A1404K counted along it

N#Cc1c(NC(=O)CN2CCN(C(=O)CCCC[C@H]3SC[C@@H]4NC(=O)N[C@@H]43)CC2)sc2c1CCCC2 [CN-0928-biotin, N-(3-cyano-4,5,6,7-tetrahydrobenzo[b]thiophen-2-yl)-2-(4-(5-((3aS,4R,6aR)-2-oxohexahydro-1H-thieno[3,4-d]imidazol-4-yl)pentanoyl)piperazin-1-yl)acetamide]
pulldown [1]: (R1404A, R1404L, and R1404K) prevented the binding of CN-0928-biotin to flag-labeled INTS1 | biotin probe pull-down on streptavidin beads, Western blot [2]: CN-0928-biotin pulldown of flag-tagged wild type (INTS1-WT-flag) | pulldown [3]: (R1404A, R1404L, and R1404K) prevented the binding of CN-0928-biotin to flag-labeled INTS1 | pulldown (flag-tagged INTS1): (R1404A, R1404L, and R1404K) prevented the binding of CN-0928-biotin to flag-labeled INTS1
